Results from the supplement of paper PMC10307832.

Tests used:
Experiment in all cases: relative viability (nuclei count vs DMSO), 5 days (fraction); higher = more cells survive
[1] = compound: CCN1CCN(c2ccc(Nc3cc(N(C)C(=O)Nc4c(Cl)c(OC)cc(OC)c4Cl)ncn3)cc2)CC1 [BGJ398] + O=C(c1cc(Cc2n[nH]c(=O)c3ccccc23)ccc1F)N1CCN(C(=O)C2CC2)CC1 [Olaparib] (partner 8 µM)
Procedure, shortened: (§1)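 Lung cancer cell lines in 1536-well plates were dosed by pin tool the day after seeding, either with one drug alone or with a fixed anchor-drug dose plus five library-drug doses (not always all listed) in √10 steps. After 5 days, cells were fixed and their nuclei stained in one step (final 0.05% Triton X-100, 1% formaldehyde, 1 ug/ml Hoechst), then counted on 4× images. Relative viability is the nuclei count in treated wells divided by that in vehicle wells. Values are medians of duplicate plates.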

[2] = compound: CCN1CCN(c2ccc(Nc3cc(N(C)C(=O)Nc4c(Cl)c(OC)cc(OC)c4Cl)ncn3)cc2)CC1 [BGJ398] + C[C@@H](Oc1cc(-c2cnn(C3CCNCC3)c2)cnc1N)c1c(Cl)ccc(F)c1Cl [Crizotinib] (partner 1 µM)
Procedure, shortened: as §1

[3] = compound: C1=CC2=NC=CN=C2C=C1/C=C/3\C(=O)NC(=O)S3 + C[C@]1(O)C[C@@H](c2nc(-c3ccc4ccc(-c5ccccc5)nc4c3)c3c(N)nccn32)C1 [Linsitinib] (partner 1 µM)
Procedure, shortened: as §1

[4] = compound: CCN1CCN(c2ccc(Nc3cc(N(C)C(=O)Nc4c(Cl)c(OC)cc(OC)c4Cl)ncn3)cc2)CC1 [BGJ398] + Nc1nc2[nH]cc(CCc3ccc(C(=O)N[C@@H](CCC(=O)O)C(=O)O)cc3)c2c(=O)[nH]1 [Pemetrexed] (partner 0.2 µM)
Procedure, shortened: as §1

| Cell Line | relative viability ([1]; first compound 0.01 µM) | relative viability ([1]; first compound 0.03162 µM) | relative viability ([1]; first compound 0.1 µM) | relative viability ([1]; first compound 0.3162 µM) | relative viability ([1]; first compound 1 µM) | relative viability ([2]; first compound 0.01 µM) | relative viability ([2]; first compound 0.03162 µM) | relative viability ([2]; first compound 0.1 µM) | relative viability ([2]; first compound 0.3162 µM) | relative viability ([2]; first compound 1 µM) | relative viability ([3]; first compound 0.02 µM) | relative viability ([3]; first compound 0.06325 µM) | relative viability ([3]; first compound 0.2 µM) | relative viability ([3]; first compound 0.6325 µM) | relative viability ([3]; first compound 2 µM) | relative viability ([4]; first compound 0.01 µM) | relative viability ([4]; first compound 0.03162 µM) | relative viability ([4]; first compound 0.1 µM) | relative viability ([4]; first compound 0.3162 µM) | relative viability ([4]; first compound 1 µM) |
| --- | --- | --- | --- | --- | --- | --- | --- | --- | --- | --- | --- | --- | --- | --- | --- | --- | --- | --- | --- | --- |
| NCI-H3122 | 0.628 | 0.611 | 0.661 | 0.596 | 0.654 | 0.229 | 0.271 | 0.282 | 0.295 | 0.272 | 1.01 | 1.15 | 0.955 | 1 | 1.17 | 0.206 | 0.193 | 0.192 | 0.188 | 0.202 |
| COR-L23 | 0.337 | 0.337 | 0.308 | 0.337 | 0.313 | 0.588 | 0.826 | 0.598 | 0.762 | 0.653 | 0.874 | 0.89 | 0.978 | 0.861 | 0.951 | 0.189 | 0.191 | 0.192 | 0.208 | 0.193 |
| NCI-H2087 | 0.46 | 0.744 | 0.574 | 0.609 | 0.613 | 0.923 | 0.831 | 0.865 | 0.911 | 0.863 | 1.07 | 0.911 | 0.996 | 0.937 | 0.954 | 0.644 | 0.606 | 0.671 | 0.699 | 0.678 |
| LC-2-ad | 0.766 | 0.759 | 0.694 | 0.677 | 0.749 | 0.446 | 0.451 | 0.444 | 0.487 | 0.476 | 0.76 | 0.885 | 0.784 | 0.726 | 0.854 | 0.292 | 0.285 | 0.245 | 0.271 | 0.31 |
| NCI-H1915 | 0.231 | 0.285 | 0.252 | 0.256 | 0.246 | 0.847 | 0.869 | 0.998 | 0.936 | 0.886 | 1.1 | 1.18 | 1.11 | 1.12 | 1.08 | 0.511 | 0.524 | 0.571 | 0.458 | 0.521 |
| NCI-H2023 | 0.486 | 0.465 | 0.513 | 0.463 | 0.503 | 0.618 | 0.62 | 0.605 | 0.747 | 0.655 | 0.626 | 0.787 | 0.611 | 0.568 | 0.632 | 0.279 | 0.227 | 0.248 | 0.252 | 0.242 |
| COR-L 105 | 0.627 | 0.647 | 0.687 | 0.733 | 0.639 | 0.737 | 0.844 | 0.879 | 0.86 | 0.819 | 0.897 | 0.949 | 0.947 | 0.851 | 1.03 | 1.36 | 1.12 | 0.879 | 1.12 | 0.936 |
| RERF-LC-KJ | 0.961 | 0.959 | 0.969 | 0.917 | 0.92 | 0.807 | 0.928 | 0.852 | 0.871 | 0.788 | 0.82 | 1.03 | 0.894 | 0.811 | 0.853 | 0.436 | 0.431 | 0.37 | 0.49 | 0.408 |
